From publication PMC5556071, “ATR inhibition facilitates targeting of leukemia dependence on convergent nucleotide biosynthetic pathways” (Nature Communications, 2017)
Where “and” joins values, the source holds several entries; their conditions need not be identical. Identical values can stand only once.

Legend:
CEM cells [1] = assay: Targeted LC-MS/MS-MRM of de novo and salvage dCTP biosynthesis (nucleotide pools and newly replicated DNA); type: cell-based, human
Method: Cells were transferred into RPMI-1640 without glucose and supplemented with 10% dialyzed FBS (Gibco) containing the following labeled substrates: precursors for de novo [U-^13C6]glucose (Sigma-Aldrich, 389374) at 11 mM; precursors for purine salvage [U-^13C10,^15N5]dA (Cambridge Isotopes, CIL 3896), [^15N5]dA (Cambridge Isotopes, NLM-3895) and [^15N5]dG (Cambridge Isotopes, NLM-3899) at 5 µM or as indicated; and precursors for pyrimidine salvage: [U-^13C9,^15N3]dC (Silantes, 124603602) and [U-^13C10,^15N2]dT (Cambridge Isotopes, CNLM-3902) at 5 µM and [^15N2]orotate (Cambridge Isotopes, NLM-1048) at indicated concentrations. The cells were incubated for 12 h or as indicated before sample collection and processing.
The rates of dCTP incorporation into the DNA were determined using linear regression with procedure GLM in SAS (v. 9.4). DNA % label was transformed using a shifted log addition of 1 due to the presence of zeros in the data set. Rates were calculated using the slope of the regression line for the log transformed data and are presented in the table with the associated standard errors, along with the ratio between the rate of incorporation into DNA by the de novo and salvage pathways (Table 1).
Cell cycle synchronization. Cells were treated with a CDK4/6 inhibitor, Pablociclib or PD-0332991 (Selleckchem, S1116) for 18 h to synchronize them in the G1 phase. Subsequently, cells were washed twice with PBS containing 2% FBS (Omega Scientific) and released into fresh media. […]
Clinical Microarray Core on an Illumina HiSeq3000 using the SeqCap EZ Exome Enrichment Kit v3.0 (Roche).
Reads were mapped to UCSC hg19 (bwa-mem), deduplicaed (PicardTools), and subjected to base quality score recalibration and realignment around known indels according to the Broad Institute Genome Analysis Toolkit (GATK) Best Practices v3.0. Variants in genes associated with nucleotide biosynthesis were identified using the GATK HaplotypeCaller, and annotated with Oncotator (http://portals.broadinstitute.org/oncotator/). dNTP sample processing. 0.5 – 1 x 10^6 cells were collected into 1.5 mL microcentrifuge tubes and centrifuged (450 x g, 4 min, 4 °C). The supernatant was carefully aspirated and the cells were washed twice with 1 mL of cold PBS, followed each time by centrifugation (450 x g, 4 min 4 °C). The PBS were aspirated.
Thereafter, the pellets were treated with 10 µL of 10% trifluoroacetic acid with internal standards (1 µM […]
s, and incubated on ice for 10 min. 40 µL of 500 mM ammonium acetate, pH = 9.3, with the same internal standard (1 µM [15N3]dCMP and [15N3]dCTP) was then added and the samples were vigorously vortexed again for 30 s. The samples were centrifuged (14,000 x g, 10 min, 4 °C) to remove cell debris. The supernatants (~ 40 µL) were transferred into HPLC injector vials. Stock solutions (10 mM) of rCTP, rCDP, dCMP, dCDP, and dCTP (Sigma Aldrich) were prepared individually in water, and stored at –20 °C before use to generate calibration standards. Calibration standards were prepared and mixed together in water with internal standards (1 µM [15N3]dCMP and [15N3]dCTP) to make working stock concentrations in 100 nM – 100 µM range.
Calibration standards were diluted 10-fold into the same nucleotide extraction solution of 10% TFA/500 mM ammonium acetate (1:4, v/v) with internal standards (1 µM [15N3]dCMP and [15N3]dCTP) to give a final concentration in 10 nM – 10 µM. Nucleotide and calibration samples were processed together to minimize […]
DNA sample processing. Genomic DNA from 0.5 – 1 x 10^4 cells was extracted using the Quick-gDNA MiniPrep kit (Zymo Research, D3021) and hydrolyzed to nucleosides using the DNA Degradase Plus kit (Zymo Research, E2021), following manufacturer-supplied instructions. In the final step of DNA extraction, 50 µL of […]
water was used to elute the DNA into 1.5 mL microcentrifuge tubes. A nuclease solution (5 µL; 10X buffer/DNA Degradase Plus™/water, 2.5/1/1.5, v/v/v) was added to 20 µL of the eluted genomic DNA in an HPLC injector […]
vial. […]

CEM cells [2] = assay: Phospho-histone 3 (H3 pS10) staining, flow cytometry; type: cell-based, human; details: 500 nM 3-AP, 1 µM VE-822, 1 µM dCKi, 24 h
Method: Phospho-histone 3 staining. Cells were treated with drug combinations of three drugs. 24 h following treatment, cells were fixed and permeabilized with 1% PFA and 1X Perm/wash solution respectively.
Following fixation and permeabilization, cells were stained intracellularly with pH3 Ser10 antibody conjugated to AF647 (Cell signaling, #12230). Cells were then washed with PBS, stained with 0.5 mL of DAPI for DNA content (1 µg/mL in 2% FBS in PBS) before data acquisition. […]
FACS analysis. All flow cytometry data were acquired on five-laser LSRII cytometers (BD) for analysis, and analyzed using FlowJo software (Tree Star). The cell cycle durations were calculated using equations for multiple time-point measurements according to previously published methods (Terry and White, 2006).

[3] = CEM 12 h, 1 uM VE-822, 1 uM DI-82, 500 nM 3-AP, #1-#3

## NC(=S)N/N=C/c1ncccc1N [3-AP]
CEM cells [1]; [3]
  % sum abundance, de novo DNA-C, mass increase in nucleobase +0, in deoxyribose +3: 0.0554% and 0.0456% and 0.04%
  % sum abundance, de novo DNA-C, mass increase in nucleobase +0, in deoxyribose +4: 0.02% and 0.0358% and 0.0465%
  % sum abundance, de novo DNA-C, mass increase in nucleobase +0, in deoxyribose +5: 0.55% and 0.53% and 0.50%
  % sum abundance, de novo DNA-C, mass increase in nucleobase +1, in deoxyribose +3: 0.00%
  % sum abundance, de novo DNA-C, mass increase in nucleobase +1, in deoxyribose +4: 0.00%
  % sum abundance, de novo DNA-C, mass increase in nucleobase +1, in deoxyribose +5: 0.07% and 0.0542% and 0.0459%
  % sum abundance, de novo DNA-C, mass increase in nucleobase +2, in deoxyribose +4: 0.00%
  % sum abundance, de novo DNA-C, mass increase in nucleobase +2, in deoxyribose +5: 0.0465% and 0.04% and 0.032%
  % sum abundance, de novo DNA-C, mass increase in nucleobase +3, in deoxyribose +4: 0.00%
  % sum abundance, de novo DNA-C, mass increase in nucleobase +3, in deoxyribose +5: 0.00%
  % sum abundance, de novo DNA-C, mass increase in nucleobase +4, in deoxyribose +4: 0.00%
  % sum abundance, de novo DNA-C, mass increase in nucleobase +4, in deoxyribose +5: 0.00%
  % sum abundance, salvage DNA-C, mass increase in nucleobase +5, in deoxyribose +0: 0.00%
  % sum abundance, salvage DNA-C, mass increase in nucleobase +5, in deoxyribose +4: 0.00%
  % sum abundance, salvage DNA-C, mass increase in nucleobase +5, in deoxyribose +5: 0.00%
  % sum abundance, salvage DNA-C, mass increase in nucleobase +6, in deoxyribose +0: 0.00%
  % sum abundance, salvage DNA-C, mass increase in nucleobase +6, in deoxyribose +4: 0.00%
  % sum abundance, salvage DNA-C, mass increase in nucleobase +6, in deoxyribose +5: 0.39% and 0.40%
  % sum abundance, salvage DNA-C, mass increase in nucleobase +7, in deoxyribose +0: 0.00%
  % sum abundance, salvage DNA-C, mass increase in nucleobase +7, in deoxyribose +4: 0.23% and 0.25%
  % sum abundance, salvage DNA-C, mass increase in nucleobase +7, in deoxyribose +5: 4.69% and 4.96% and 4.68%
  % sum abundance, unlabeled DNA-C, mass increase in nucleobase +0, in deoxyribose +0: 83.63% and 83.39% and 83.92%
  % sum abundance, unlabeled DNA-C, mass increase in nucleobase +0, in deoxyribose +1: 4.68% and 4.72% and 4.61%
  % sum abundance, unlabeled DNA-C, mass increase in nucleobase +0, in deoxyribose +2: 0.67% and 0.60% and 0.58%
  % sum abundance, unlabeled DNA-C, mass increase in nucleobase +1, in deoxyribose +0: 4.40% and 4.42% and 4.39%
  % sum abundance, unlabeled DNA-C, mass increase in nucleobase +1, in deoxyribose +1: 0.26%
  % sum abundance, unlabeled DNA-C, mass increase in nucleobase +1, in deoxyribose +2: 0.00%
  % sum abundance, unlabeled DNA-C, mass increase in nucleobase +2, in deoxyribose +0: 0.31% and 0.29% and 0.26%
  % sum abundance, unlabeled DNA-C, mass increase in nucleobase +2, in deoxyribose +1: 0.00%
  % sum abundance, unlabeled DNA-C, mass increase in nucleobase +2, in deoxyribose +2: 0.00%
  % sum abundance, unlabeled DNA-C, mass increase in nucleobase +3, in deoxyribose +0: 0.00%
  % sum abundance, unlabeled DNA-C, mass increase in nucleobase +3, in deoxyribose +1: 0.00%
  % sum abundance, unlabeled DNA-C, mass increase in nucleobase +4, in deoxyribose +0: 0.00%
CEM cells [1]; CEM, 500 nM 3-AP, 12 h
  increase of incorporation of salvage-produced dCTP into DNA: > 1.5 fold
  rCTP and rCDP pools: doubled
  reduction in the incorporation of de novo produced dCTP into DNA: ~ 19 fold
  salvage dC nucleotide pools: doubled
CEM cells [1]; asynchronous CEM, 12 h
  increase of salvage contributions to the dCMP, dCDP and dCTP pools: approximately twofold
CEM cells [2]
  H3 pS10 plot, upper percentage (gate not given): 1.8%
